Reference: patent US20040048834A1, “Antitumoral compounds” (priority 2000, published 2004)
Counter-ions that a name gives are not always drawn. Like-named read-outs stand apart in the source and are kept apart here.

Assays:
Assay type in all cases: cell-based
P388 = assay: Cytotoxicity of spisulosine analogs, P388 (after Berjeron et al); details: methodology after Berjeron et al, NA=not active, read-out: Cytotoxicity IC50 P388
HT29 = assay: Cytotoxicity of spisulosine analogs, HT29 (after Berjeron et al); details: methodology after Berjeron et al, NA=not active, read-out: Cytotoxicity IC50 HT29
A549 = assay: Cytotoxicity of spisulosine analogs, A549 (after Berjeron et al); details: methodology after Berjeron et al, NA=not active, read-out: Cytotoxicity IC50 A549
MEL28 = assay: Cytotoxicity of spisulosine analogs, MEL28 (after Berjeron et al); details: methodology after Berjeron et al, NA=not active, read-out: Cytotoxicity IC50 MEL28
DU145 = assay: Cytotoxicity of spisulosine analogs, DU145 (after Berjeron et al); details: methodology after Berjeron et al, NA=not active, read-out: Cytotoxicity IC50 DU145

Question: What does the source list for `CCCCCCCCCCCCCCCCCC[C@@H](O)[C@H](C)N` [drawing 52, (2S,3R)-2-Amino-3-heneicosanol]?
Answer: IC50 (P388; Mus musculus, P388, P388): 153 nM; IC50 (HT29; HT29): 305 nM; IC50 (A549; A549): 305 nM; IC50 (MEL28; Homo sapiens, SK-MEL-28, MEL28): 305 nM; IC50 (DU145; Homo sapiens, DU-145, DU145): 305 nM

Question: `CCCCCCCCCCCCC[C@@H](O)[C@H](C)N` [drawing 42, (2S,3R)-2-Amin-3-hexadecanol hydrochloride] was tested. Which IC50 (HT29; HT29, hydrochloride) did it give?
Answer: 3.4 nM

Question: What about the IC50 (A549; A549, hydrochloride) of the same compound?
Answer: 3.4 nM

Question: Which IC50 (P388; Mus musculus, P388, P388) does the source give for `CCCCCCCCCCCC[C@@H](O)[C@H](C)N` [(2S,3R)-2-Amino-3-pentadecanol] here?
Answer: 411 nM

Question: What about the IC50 (HT29; Homo sapiens, HT-29, HT29) of the same compound?
Answer: 411 nM

Question: What about the IC50 (A549; Homo sapiens, A549, A549) of the same compound?
Answer: 411 nM

Question: And the IC50 (MEL28; Homo sapiens, SK-MEL-28, MEL28)?
Answer: 2050 nM

Question: What about the IC50 (DU145; Homo sapiens, DU-145, DU145) of the same compound?
Answer: 411 nM

Question: Which results are given for `CCCCCCCCCCC[C@@H](O)[C@H](C)N` [(2S,3R)-2-Amino-3-tetradecanol]?
Answer: IC50 (P388; Mus musculus, P388, P388): 436 nM; IC50 (HT29; Homo sapiens, HT-29, HT29): 436 nM; IC50 (A549; Homo sapiens, A549, A549): 2180 nM; IC50 (MEL28; Homo sapiens, SK-MEL-28, MEL28): 2180 nM; IC50 (DU145; Homo sapiens, DU-145, DU145): 2180 nM

Question: With `CCCCCCCCCCCCCC[C@@H](O)[C@@H](N)CC` [drawing 56, (3S,4R)-3-Amino-4-octadecanol] as the compound, how does the IC50 (HT29; HT29) read?
Answer: 3.5 nM

Question: And the IC50 (A549; A549)?
Answer: 3.5 nM

Question: For `CCCCCCCCCCCCCCC[C@@H](O)[C@@H](N)CCC` [drawing 65, (4S,5R)-4-Amino-5-eicosanol hydrochloride], which IC50 (HT29; HT29, hydrochloride) is on record?
Answer: 28.6 nM

Question: What about the IC50 (A549; A549, hydrochloride) of the same compound?
Answer: 28.6 nM

Question: `CCCCCCCCCCCCCCC[C@@H](N)[C@H](C)N` was tested. Which IC50 (HT29; HT29) did it give?
Answer: 1400 nM

Question: What about the IC50 (A549; A549) of the same compound?
Answer: 1400 nM

Question: For `CCCCCCCCCCCCCCCC[C@@H](O)[C@@H](N)CC` [drawing 61, (3S,4R)-3-Amino-4-eicosanol hydrochloride], which IC50 (HT29; HT29, hydrochloride) is on record?
Answer: 28.6 nM

Question: What about the IC50 (A549; A549, hydrochloride) of the same compound?
Answer: 28.6 nM

Question: How did the IC50 (P388; P388) turn out when `CCCCCCCCCCCCCCCC(O)C(N)CC` (centres unmarked) [drawing 79] was run?
Answer: 334 nM

Question: What about the IC50 (HT29; HT29) of the same compound?
Answer: 334 nM

Question: What about the IC50 (A549; A549) of the same compound?
Answer: 334 nM

Question: And the IC50 (MEL28; MEL28)?
Answer: 334 nM

Question: What about the IC50 (DU145; DU145) of the same compound?
Answer: 334 nM

Question: What does the source list for `CCCCCCCCCCCCCCCCCCC[C@@H](O)[C@H](C)N` [(2S,3R)-2-Amino-3-docosanol]?
Answer: IC50 (P388; Mus musculus, P388, P388): 293 nM; IC50 (HT29; Homo sapiens, HT-29, HT29): 1460 nM; IC50 (DU145; Homo sapiens, DU-145, DU145): 1460 nM

Question: What does the source list for `CCCCCCCCCCCCCCCCC(=O)[C@H](C)N` [drawing 104]?
Answer: IC50 (P388; P388): 150 nM; IC50 (HT29; HT29): 150 nM; IC50 (A549; A549): 150 nM; IC50 (MEL28; MEL28): 299 nM; IC50 (DU145; DU145): 150 nM

Question: Which results are given for `CCCCCCCCCCCCCCC[C@@H](O)[C@H](C)NC`?
Answer: IC50 (P388; P388): 334 nM; IC50 (HT29; HT29): 334 nM; IC50 (A549; A549): 334 nM; IC50 (MEL28; MEL28): 334 nM; IC50 (DU145; DU145): 334 nM

Question: For `CCCCCCCCCCCCCCCCC[C@@H](O)[C@H](C)N` [drawing 51, (2S,3R)-2-Amino-3-eicosanol hydrochloride], which IC50 (HT29; HT29, hydrochloride) is on record?
Answer: 14.3 nM

Question: What about the IC50 (A549; A549, hydrochloride) of the same compound?
Answer: 14.3 nM

Question: For `CCCCCCCCCCCCCCCC[C@@H](O)[C@@H](N)CC` [drawing 60, (3S,4R)-3-Amino-4-eicosanol], which IC50 (HT29; HT29) is on record?
Answer: 319 nM

Question: What about the IC50 (A549; A549) of the same compound?
Answer: 319 nM

Question: What does the source list for `CCCCCCCCCCCCC[C@@H](O)[C@H](C)N` [drawing 41, (2S,3R)-2-Amino-3-hexadecanol]?
Answer: IC50 (P388; Mus musculus, P388, P388): 388 nM; IC50 (HT29; HT29): 388 nM; IC50 (A549; A549): 194 nM; IC50 (MEL28; Homo sapiens, SK-MEL-28, MEL28): 368 nM; IC50 (DU145; Homo sapiens, DU-145, DU145): 194 nM

Question: For `CCCCCCCCCCCCCCC[C@@H](OC(=O)C(F)(F)F)[C@H](C)N`, which IC50 (HT29; HT29) is on record?
Answer: 20.2 nM

Question: What about the IC50 (A549; A549) of the same compound?
Answer: 20.2 nM

Question: What does the source list for `CCCCCCCCCCCCCCC[C@@H](O)[C@@H](N)CF` [drawing 111]?
Answer: IC50 (P388; P388): 32.9 nM; IC50 (HT29; HT29): 32.9 nM; IC50 (A549; A549): 32.9 nM; IC50 (MEL28; MEL28): 329 nM; IC50 (DU145; DU145): 329 nM

Question: Which results are given for `CCCCCCCCCCCCCCCC[C@@H](O)[C@H](C)NS(C)(=O)=O`?
Answer: IC50 (HT29; HT29): 265 nM; IC50 (A549; A549): 265 nM

Question: With `CCCCCCCCCCCCC/C=C/[C@@H](O)[C@@H](N)CF` as the compound, how does the IC50 (HT29; Homo sapiens, HT-29, HT29) read?
Answer: 33.2 nM

Question: And the IC50 (A549; Homo sapiens, A549, A549)?
Answer: 33.2 nM

Question: With `CCCCCCCCCCCCCCCCCC(=O)[C@H](C)N` [drawing 105] as the compound, how does the IC50 (P388; P388) read?
Answer: 144 nM

Question: And the IC50 (HT29; HT29)?
Answer: 144 nM

Question: What about the IC50 (A549; A549) of the same compound?
Answer: 144 nM

Question: What about the IC50 (MEL28; MEL28) of the same compound?
Answer: 287 nM

Question: And the IC50 (DU145; DU145)?
Answer: 144 nM

Question: Which IC50 (P388; P388) does the source give for `CCCCCCCCCCCCCCCC(=NO)C(C)N` (centres unmarked) here?
Answer: 335 nM

Question: What about the IC50 (HT29; HT29) of the same compound?
Answer: 335 nM

Question: What about the IC50 (A549; A549) of the same compound?
Answer: 335 nM

Question: And the IC50 (MEL28; MEL28)?
Answer: 335 nM

Question: What about the IC50 (DU145; DU145) of the same compound?
Answer: 335 nM

Question: How did the IC50 (P388; Mus musculus, P388, P388) turn out when `CCCCCCCCCCCCCCC[C@@H](O)[C@@H](N)CC` [drawing 58, (3S,4R)-3-Amino-4-nonadecanol] was run?
Answer: 33.4 nM

Question: What about the IC50 (HT29; HT29) of the same compound?
Answer: 33.4 nM

Question: And the IC50 (A549; A549)?
Answer: 33.4 nM

Question: What about the IC50 (MEL28; Homo sapiens, SK-MEL-28, MEL28) of the same compound?
Answer: 334 nM

Question: And the IC50 (DU145; Homo sapiens, DU-145, DU145)?
Answer: 33.4 nM

Question: Which results are given for `CCCCCCCCCCCCCCC[C@@H](O)[C@H](C)N(C)C`?
Answer: IC50 (P388; P388): 319 nM; IC50 (HT29; HT29): 319 nM; IC50 (A549; A549): 319 nM; IC50 (MEL28; MEL28): 319 nM; IC50 (DU145; DU145): 319 nM
